Assay in all cases: DTP human tumour cell line panel, 48 h
The subject of assay [1] is HOP-92 NSCLC.
Assay [2] deals with MOLT-4 leukemia.
In assay [3] the test system is NCI-H226 lung.
Assay [4] deals with CAKI-1 renal.
Assay [5] deals with UO-31 renal.
Assay [6] concerns IGROV1 ovarian.
For assay [7], the system named is SK-MEL-28 melanoma.
Assay [8] has as its system HT29 colon.
In assay [9] the test system is M14 melanoma.
For assay [10], the system named is SK-MEL-2 melanoma.

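Following 48 hours of exposure in 96-well plates, responses at five concentrations were used to interpolate endpoints linearly. The concentration for 50% growth inhibition is given as GI50. At the TGI there is no net growth.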

One may read the GI50 as the concentration that inhibits growth by half. A word on the TGI: it is the concentration at which net growth stops. Read a low TGI as more potent growth arrest.

Regarding `COc1cc2c(cc1OCc1ccccc1)N=C[C@@H]1C/C(=C/C(=O)NCCCN3C(=O)c4cccc5cccc(c45)C3=O)CN1C2=O`, the GI50 in [1] was 0.724 µM; in assay [2], 0.0553 µM; in assay [3], 2.82 µM; in assay [4] it was 2.14 µM; in assay [5], 2.68 µM; in assay [6] it was 0.468 µM. Also, the values for the GI50 in assay [7], in assay [8] and in assay [9] were 1.96 µM, 0.825 µM and 2.17 µM, respectively. The TGI was 4.76 µM in assay [1]; 63.9 µM in assay [2]; > 100 µM in [3]; 19.7 µM in assay [4]; > 20.7 µM in [5]; 24.8 µM in assay [7]. Further, the figures for the TGI in assay [8] and in assay [9] were > 100 µM and 6.92 µM, respectively.
Regarding `COc1ccc(/C=C/c2cc(OC)c(OC)c(OC)c2)cc1NC(=O)/C=C/c1ccc(F)cc1`, the GI50 in [1] is 4.36 µM; in assay [2], 4.48 µM; in assay [3], 3.82 µM; in assay [4], 2.11 µM; in assay [5], 2.3 µM; in assay [6] it was 5.71 µM. Further, the GI50 in [7] was 5.04 µM; in assay [8], 2.34 µM; in [9], 2.81 µM. Moreover, the TGI in assay [1] is > 100 µM; in [2] it was > 100 µM; in assay [3], 89 µM; in assay [4], > 100 µM; in assay [5], > 100 µM; in assay [6], > 100 µM. The TGI in assay [7] is > 100 µM; in assay [8], 13.5 µM; in [9], > 100 µM.
Take `Nc1ccc(C(=O)N/C(=C\C=C\c2ccco2)c2nc3[nH]c(=S)[nH]c(=O)c3[nH]2)cc1`: the TGI in assay [1], in assay [2], in assay [4], in [5], in assay [6] and in assay [7] was > 100 µM each time. For the same molecule, the TGI in assay [10], in assay [8] and in [9] was > 100 µM throughout.
In the case of `O=C(Nc1ccccc1)c1ccc(Cl)c([N+](=O)[O-])c1`, the TGI in [2] was 21.8 µM; in assay [3], 68.4 µM; in assay [4], 40.4 µM; in assay [5] it was > 100 µM; in assay [6] it was 54.3 µM; in assay [7], 61.4 µM. In addition, the results for the TGI in [10], in assay [8] and in [9] were 32.4 µM, 70.1 µM and 29.9 µM, respectively.
Take `C=CCCCCCCCCCCCC1CCC(CC)N1` (configuration not stated): the TGI in assay [2] was found to be 17 µM; in assay [3] it was 49.1 µM; in assay [4], 25.4 µM; in [5], 23.8 µM; in assay [6], 25.9 µM; in assay [7], 29.6 µM. Moreover, the results for the TGI in assay [10], in [8] and in assay [9] were 29.5 µM, 14 µM and 24.6 µM, respectively.
For the molecule `CCOC(=O)CCC(=O)C1c2cccc(O)c2C(=O)c2c(O)cccc21`, the TGI in assay [1] was 3.23 µM; in assay [2] it was 13.7 µM; in assay [4], 4.99 µM; in assay [5], 1.48 µM; in assay [6], 4.72 µM; in assay [7] it was 2.68 µM. Also, the results for the TGI in assay [8] and in [9] were 6.24 µM and 1.9 µM, respectively.
As for `N#CC(C#N)=C(N)/C(C#N)=C\c1ccnc2ccccc12`, the TGI is 88 µM in assay [1]; 47.9 µM in assay [2]; 92.1 µM in assay [4]; 40.9 µM in assay [5]; 49.5 µM in assay [6]; 40.2 µM in assay [7]. The TGI in assay [8] is 57.7 µM; in assay [9], > 100 µM.
For `O=C(Nc1ccc(Cl)cc1)Nc1ccc(Cl)c(Cl)c1`, the GI50 is 1.62 µM in assay [1]; 2.65 µM in assay [2]; 2.96 µM in [4]; 2.32 µM in [5]; 4.78 µM in assay [6]; 6.07 µM in [7]. Moreover, the GI50 was 3.07 µM in assay [10], 3.76 µM in [8] and 4.71 µM in assay [9]. The TGI in assay [1] is 5.46 µM; in assay [2] it was > 100 µM; in assay [4] it was > 100 µM; in [5] it was 10.1 µM; in [6], > 100 µM; in assay [7] it was > 100 µM. Further, the TGI is 32.8 µM in [10], > 100 µM in [8] and > 100 µM in assay [9].
Regarding `Cc1nc2ccc(C(F)(F)F)cc2nc1Nc1ccc(Cl)c(Cl)c1`, the TGI in assay [1] turned out to be 12.1 µM; in assay [2], 48.2 µM; in assay [3] it was 39.1 µM; in [5] it was 24.6 µM; in assay [7], 24.7 µM; in [10], 30.2 µM. In [8], this molecule displayed a TGI of 18.6 µM.
Turning to `c1cnc2c(c1)-n1cccc1C1(CCSCC1)NN2`, the TGI in assay [2] is > 100 µM; in assay [3], > 100 µM; in assay [4], > 100 µM; in assay [5], 94.1 µM; in [7], > 100 µM; in assay [10] it was > 100 µM. Moreover, the TGI in assay [8] and in assay [9] was > 100 µM in each case.
Regarding `CCN(CC)CCn1c2c3ccccc3ccc2c2oc(=O)c3ccccc3c21`, the TGI in assay [1], in [4], in [5], in assay [6], in assay [7] and in assay [10] was > 100 µM in each case. Moreover, the TGI in assay [8] and in assay [9] was > 100 µM in each case.
For the molecule `CCCC(=O)c1c(NOC2OC(COC(C)=O)C(OC(C)=O)C(OC(C)=O)C2OC(C)=O)nc(OC)n(C)c1=O` (configuration not stated), the TGI in [2] was > 100 µM; in [3], > 100 µM; in [5] it was 89 µM; in assay [6], > 100 µM; in assay [7], > 100 µM; in assay [10], > 100 µM. The TGI in assay [8] and in assay [9] was > 100 µM in each case.
